In general, IC50 refers to the concentration needed to halve the response being measured.

In one series the target is Cytochrome P450 3A4 (Homo sapiens, UniProt P08684). The series can be described thus: Inhibition of CYP3A4 after 30 mins by fluorescence assay. The series is classed as ADME.
Series [1] deals with Lasiodiplodia theobromae. The series can be described thus: Drug metabolism in Lasiodiplodia theobromae assessed as bergaptol level at 78.2 uM after 5 days. The settings on record: in vivo, 120 h. Format: ADME, organism-based.
Series [2] is described as follows: Drug metabolism in Penicillium ulaiense assessed as decrease in 6',7'-dihydroxybergamottin level at 23.7 uM after 4 days. Format: ADME. The settings on record: 96 h.
Series [3] can be described thus: Drug metabolism in submerged cultures of Penicillium ulaiense assessed as decrease in compound concentration at 23.7 uM after 8 days. Format: ADME. The settings on record: 192 h.
Series [4] can be described thus: Drug metabolism in Penicillium ulaiense assessed as production of bergaptol at 23.7 uM up to 10 days. Format: ADME. The settings on record: 240 h.
Series [5] in a line: Drug metabolism in Phomopsis citri assessed as bergaptol level at 78.2 uM after 5 days. The series is classed as ADME. The settings on record: diaporthe citri, 120 h.
Series [6] can be described thus: Drug metabolism in Penicillium ulaiense assessed as production of 6,7-furano-5-(6',7'-dihydroxygeranyloxy)-2-hydroxy-hydrocoumaric acid at 23.7 uM after 2 days. The series is classed as ADME. The settings on record: 48 h.
Series [7] in a line: Drug metabolism in Phomopsis citri assessed as 6,7-furano-5-(6',7'-dihydroxygeranyloxy)-2-hydroxy-hydrocoumaric acid level at 78.2 uM after 5 days. The series is classed as ADME. The settings on record: diaporthe citri, 120 h.
Series [8] in a line: Drug metabolism in Phomopsis citri assessed as 6',7'-dihydroxybergamottin level at 78.2 uM after 5 days. The series is classed as ADME. The settings on record: diaporthe citri, 120 h.
The test system of series [9] is Botrytis cinerea. The series can be described thus: Drug metabolism in Botrytis cinerea assessed as compound level at 78.2 uM after 5 days. The series is classed as ADME, organism-based. The settings on record: in vivo, 120 h.
Series [10] has as its system Geotrichum. Briefly: Drug metabolism in Geotrichum citri assessed as production of 6,7-furano-5-(6',7'-dihydroxygeranyloxy)-2-hydroxy-hydrocoumaric acid at 23.7 uM after 2 days. The series is classed as ADME, organism-based. The settings on record: in vivo, 48 h.
The nature of series [11]: Drug metabolism in Penicillium ulaiense assessed as production of 6,7-furano-5-(6',7'-dihydroxygeranyloxy)-2-hydroxy-hydrocoumaric acid at 23.7 uM upto 10 days. The series is classed as ADME. The settings on record: 240 h.
Series [12] relates to Geotrichum. Briefly: Drug metabolism in Geotrichum citri assessed as 6,7-furano-5-(6',7'-dihydroxygeranyloxy)-2-hydroxy-hydrocoumaric acid level at 78.2 uM after 5 days. The settings on record: in vivo, 120 h. Format: ADME, organism-based.
The test system of series [13] is Botrytis cinerea. The series can be described thus: Drug metabolism in Botrytis cinerea assessed as 6',7'-dihydroxybergamottin level at 78.2 uM after 5 days. The settings on record: in vivo, 120 h. The series is classed as ADME, organism-based.
Series [14] concerns Lasiodiplodia theobromae. Briefly: Drug metabolism in Lasiodiplodia theobromae assessed as 6',7'-dihydroxybergamottin level at 78.2 uM after 5 days. The series is classed as ADME, organism-based. The settings on record: in vivo, 120 h.
For series [15], the system named is Penicillium digitatum. Briefly: Drug metabolism in Penicillium digitatum assessed as compound level at 78.2 uM after 5 days. The settings on record: in vivo, 120 h. The series is classed as ADME, organism-based.
In series [16] the test system is Lasiodiplodia theobromae. The series can be described thus: Drug metabolism in Lasiodiplodia theobromae assessed as 6,7-furano-5-(6',7'-dihydroxygeranyloxy)-2-hydroxy-hydrocoumaric acid level at 78.2 uM after 5 days. Format: ADME, organism-based. The settings on record: in vivo, 120 h.
Series [17] relates to Penicillium digitatum. Briefly: Drug metabolism in Penicillium digitatum assessed as 6',7'-dihydroxybergamottin level at 78.2 uM after 5 days. Format: ADME, organism-based. The settings on record: in vivo, 120 h.
Series [18] can be described thus: Drug metabolism in Phomopsis citri assessed as compound level at 78.2 uM after 5 days. The series is classed as ADME. The settings on record: diaporthe citri, 120 h.
Series [19] concerns Botrytis cinerea. Briefly: Drug metabolism in Botrytis cinerea assessed as 6,7-furano-5-(6',7'-dihydroxygeranyloxy)-2-hydroxy-hydrocoumaric acid level at 78.2 uM after 5 days. Format: ADME, organism-based. The settings on record: in vivo, 120 h.
For series [20], the system named is Geotrichum. Briefly: Drug metabolism in Geotrichum citri assessed as compound level at 78.2 uM after 5 days. Format: ADME, organism-based. The settings on record: in vivo, 120 h.
Series [21] relates to Geotrichum. The series can be described thus: Drug metabolism in Geotrichum citri assessed as 6',7'-dihydroxybergamottin level at 78.2 uM after 5 days. The settings on record: in vivo, 120 h. The series is classed as ADME, organism-based.
Series [22] has as its system Penicillium digitatum. Briefly: Drug metabolism in Penicillium digitatum assessed as 6,7-furano-5-(6',7'-dihydroxygeranyloxy)-2-hydroxy-hydrocoumaric acid level at 78.2 uM after 5 days. The settings on record: in vivo, 120 h. Format: ADME, organism-based.
Series [23] in a line: Drug metabolism in Penicillium ulaiense assessed as compound level at 78.2 uM after 5 days. Format: ADME. The settings on record: 120 h.
The nature of series [24]: Drug metabolism in Penicillium ulaiense assessed as bergaptol level at 78.2 uM after 5 days. The settings on record: 120 h. Format: ADME.
Series [25] can be described thus: Drug metabolism in Penicillium ulaiense assessed as 6,7-furano-5-(6',7'-dihydroxygeranyloxy)-2-hydroxy-hydrocoumaric acid level at 78.2 uM after 5 days. The series is classed as ADME. The settings on record: 120 h.
For series [26], the system named is Lasiodiplodia theobromae. Briefly: Drug metabolism in Lasiodiplodia theobromae assessed as compound level at 78.2 uM after 5 days. The series is classed as ADME, organism-based. The settings on record: in vivo, 120 h.
The test system of series [27] is Geotrichum. The series can be described thus: Drug metabolism in Geotrichum citri assessed as bergaptol level at 78.2 uM after 5 days. Format: ADME, organism-based. The settings on record: in vivo, 120 h.
Series [28] can be described thus: Drug metabolism in submerged cultures of Penicillium ulaiense assessed as decrease in compound concentration at 23.7 uM after 2 days. The series is classed as ADME. The settings on record: read-out: Drug metabolism.
The nature of series [29]: Drug metabolism in Penicillium ulaiense assessed as 6',7'-dihydroxybergamottin level at 78.2 uM after 5 days. The series is classed as ADME. The settings on record: 120 h.

Bounds are passed on as bounds.

Cytochrome P450 3A4, sequence (P08684 whole entry): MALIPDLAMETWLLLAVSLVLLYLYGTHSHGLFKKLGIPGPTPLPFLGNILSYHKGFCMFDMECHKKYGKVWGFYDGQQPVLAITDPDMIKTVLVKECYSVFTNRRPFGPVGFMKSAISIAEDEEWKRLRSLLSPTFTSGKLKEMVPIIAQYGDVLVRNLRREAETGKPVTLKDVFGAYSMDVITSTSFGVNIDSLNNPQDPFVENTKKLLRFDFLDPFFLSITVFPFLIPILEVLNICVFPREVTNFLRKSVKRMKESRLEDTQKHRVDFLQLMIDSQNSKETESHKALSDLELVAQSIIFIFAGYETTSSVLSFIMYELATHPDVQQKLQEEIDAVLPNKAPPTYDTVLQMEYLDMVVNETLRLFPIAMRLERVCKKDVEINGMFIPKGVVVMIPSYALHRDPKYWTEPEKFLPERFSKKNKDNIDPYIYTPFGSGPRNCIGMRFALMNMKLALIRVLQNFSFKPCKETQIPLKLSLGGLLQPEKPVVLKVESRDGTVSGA

As to `C/C(=C\COc1c2ccoc2cc2oc(=O)ccc12)CC[C@@H](O)C(C)(C)O`, the IC50 against Cytochrome P450 3A4 amounted to 810 nM.

On to `C/C(=C\COc1c(CCC(=O)O)c(O)cc2occc12)CCC(O)C(C)(C)O` (stereo unspecified), for which the concentration for half-maximal inhibition (IC50) at Cytochrome P450 3A4 is > 172000 nM.

Turning to `C/C(=C\COc1c2ccoc2cc2oc(=O)ccc12)CCC1OC1(C)C` (stereo unspecified) [6',7'-EPOXYBERGAMOTTIN], the Drug metabolism in the series on Lasiodiplodia theobromae [1] is 10.3 µM; in series [2], “Active”; in series [3], “Active”; in series [4], “Active”; in [5], 0.7 µM; in series [6] it was < 0.5 µM. The Drug metabolism was 4.1 µM in series [7]; 3.3 µM in series [8]; 1.3 µM with Botrytis cinerea [9]; 7.4 µM in the series with Geotrichum [10]; “Active” in [11]; 24.3 µM in the series on Geotrichum [12]. Moreover, the Drug metabolism was 5 µM in the series on Botrytis cinerea [13]; 23.9 µM in the series on Lasiodiplodia theobromae [14]; 0.1 µM with Penicillium digitatum [15]; 12.6 µM in the series with Lasiodiplodia theobromae [16]; 8.3 µM in the series with Penicillium digitatum [17]; 1.3 µM in series [18]. Moreover, the Drug metabolism in the series with Botrytis cinerea [19] worked out at 25.1 µM; in the series with Geotrichum [20] it was 8.2 µM; in the series with Geotrichum [21] it was 7.3 µM; in the series on Penicillium digitatum [22] it was 32 µM; in series [23] it was 0.7 µM; in series [24] it was 0.3 µM. Moreover, the Drug metabolism came to 46.6 µM in series [25], 1.1 µM in the series on Lasiodiplodia theobromae [26], 3.9 µM with Geotrichum [27] and 0.5 µM in series [29]. Besides, in [28], the metabolised at 48 h, 23.7 µM was > 90%.

For the origin of these results see ChEMBL document CHEMBL1955821, “Biotransformations of 6',7'-dihydroxybergamottin and 6',7'-epoxybergamottin by the citrus-pathogenic fungi diminish cytochrome P450 3A4 inhibitory activity” (Bioorg Med Chem Lett, 2012).
